Measured values from ChEMBL document CHEMBL1125480, “Studies on antidiabetic agents. 11. Novel thiazolidinedione derivatives as potent hypoglycemic and hypolipidemic agents” (1992).

Columns and labels:
Format in all cases: functional
Mus musculus [1] = species: Mus musculus; assay: Maximum reduction in blood glucose levels in KKA mice at a dosage of 0.005% in diet
Mus musculus [2] = species: Mus musculus; assay: Maximum reduction in plasma triglyceride levels in KKA mice at a dosage of 0.005% in diet
Mus musculus [3] = species: Mus musculus; assay: Effective dose to reduce 25% of glucose levels in blood
Mus musculus [4] = species: Mus musculus; assay: Effective dose to reduce 25% of triglyceride levels in plasma
Mus musculus [5] = species: Mus musculus; assay: Maximum reduction in blood glucose levels in KKA mice at a dosage of 0.001% in diet
Mus musculus [6] = species: Mus musculus; assay: Maximum reduction in plasma triglyceride levels in KKA mice at a dosage of 0.001% in diet
Mus musculus [7] = species: Mus musculus; assay: Compound was tested for maximum reduction in plasma triglyceride levels in KKA mice at a dosage of 0.005% in diet

SMILES	Reduction (Mus musculus [1])	Reduction (Mus musculus [2])	ED25 (Mus musculus [3]; Mus musculus, Blood)	ED25 (Mus musculus [4])	Reduction (Mus musculus [5])	Reduction (Mus musculus [6])	Reduction (Mus musculus [7])	ED25 (Mus musculus [3])
Cc1oc(CCOc2ccc(CC3SC(=O)NC3=O)cc2)nc1-c1ccccc1 (centres undefined)	54%	60%						
CCCc1nc(COc2ccc(CC3SC(=O)NC3=O)cc2)co1 (centres undefined)	12%	29%						
Cc1oc(-c2cccs2)nc1CCOc1ccc(CC2SC(=O)NC2=O)cc1 (centres undefined)	51%	72%	0.09 mg/kg/day	0.3 mg/kg/day	50%	41%		
CCCc1nc(CCOc2ccc(CC3SC(=O)NC3=O)cc2)co1 (centres undefined)	52%	65%	2 mg/kg/day	2 mg/kg/day	29%	26%		
Cc1nc(CCOc2ccc(CC3SC(=O)NC3=O)cc2)cs1 (centres undefined)	42%	52%	4 mg/kg/day	4 mg/kg/day	17%	15%		
Cc1nc(C(=O)COc2ccc(CC3SC(=O)NC3=O)cc2)c(C)o1 (centres undefined)	39%	27%						
Cc1oc(-c2ccccc2)nc1COc1ccc(CC2SC(=O)NC2=O)cc1 (centres undefined)	21%	44%	3 mg/kg/day	5 mg/kg/day	23%	17%		
CC1(COc2ccc(CC3SC(=O)NC3=O)cc2)CCCCC1 (centres undefined) [CIGLITAZONE]			31 mg/kg/day	25 mg/kg/day				
Cc1oc(-c2cccs2)nc1CCOc1ccc(/C=C2\SC(=O)NC2=O)cc1	55%	57%						
CCc1oc(-c2ccccc2)nc1CCOc1ccc(/C=C2\SC(=O)NC2=O)cc1	54%	59%						
Cc1scnc1CCOc1ccc(CC2SC(=O)NC2=O)cc1 (centres undefined)	52%	45%						
O=C1NC(=O)C(Cc2ccc(OCCc3csc(C4CCCCC4)n3)cc2)S1 (centres undefined)			0.8 mg/kg/day	3 mg/kg/day	43%	33%		
Cc1oc(-c2ccccc2)nc1CCCOc1ccc(CC2SC(=O)NC2=O)cc1 (centres undefined)	21%	29%						
O=C1NC(=O)C(Cc2ccc(OCc3coc(-c4ccccc4)n3)cc2)S1 (centres undefined)	48%	51%	3 mg/kg/day	4 mg/kg/day	16%	12%		
Cc1cccc(-c2nc(CCOc3ccc(CC4SC(=O)NC4=O)cc3)c(C)o2)c1 (centres undefined)			0.05 mg/kg/day	0.06 mg/kg/day	49%	61%		
Cc1oc(-c2ccccc2)nc1C(O)COc1ccc(/C=C2\SC(=O)NC2=O)cc1 (centres undefined)	56%	60%	0.9 mg/kg/day	0.3 mg/kg/day	36%	54%		
O=C1NC(=O)C(Cc2ccc(OCc3nc4ccccc4s3)cc2)S1 (centres undefined)	43%	43%						
CCc1oc(C)nc1CCOc1ccc(CC2SC(=O)NC2=O)cc1 (centres undefined)	46%	45%	3 mg/kg/day	5 mg/kg/day	15%	0%		
O=C1NC(=O)C(Cc2ccc(OCCc3nc(-c4ccccc4)oc3CO)cc2)S1 (centres undefined)	31%	39%						
Cc1nc(C(=O)COc2ccc(/C=C3\SC(=O)NC3=O)cc2)c(C)o1	33%	29%						

SMILES	Reduction (Mus musculus [1])	Reduction (Mus musculus [2])	ED25 (Mus musculus [3]; Mus musculus, Blood)	ED25 (Mus musculus [4])	Reduction (Mus musculus [5])	Reduction (Mus musculus [6])	Reduction (Mus musculus [7])	ED25 (Mus musculus [3])
Cc1oc(-c2ccc(O)cc2)nc1CCOc1ccc(CC2SC(=O)NC2=O)cc1 (centres undefined)					22%	26%		
CCc1ccc(CCOc2ccc(CC3SC(=O)NC3=O)cc2)nc1.Cl (centres undefined) [PIOGLITAZONE HYDROCHLORIDE]			6 mg/kg/day	6 mg/kg/day				
Cc1nc(CCOc2ccc(CC3SC(=O)NC3=O)cc2)c(C)o1 (centres undefined)	55%	56%	2 mg/kg/day	3 mg/kg/day	27%	10%		
O=C1NC(=O)C(Cc2ccc(OCc3csc(-c4ccccc4)n3)cc2)S1 (centres undefined)	28%		6 mg/kg/day	8 mg/kg/day	11%	3%	32%	
Cc1nc(COc2ccc(CC3SC(=O)NC3=O)cc2)co1 (centres undefined)		1%			19%			
CCc1oc(CCOc2ccc(CC3SC(=O)NC3=O)cc2)nc1-c1ccccc1 (centres undefined)	46%	51%						
Cc1oc(-c2ccccc2)nc1C(=O)COc1ccc(/C=C2\SC(=O)NC2=O)cc1	45%	51%						
Cc1oc(C2CCCCC2)nc1CCOc1ccc(CC2SC(=O)NC2=O)cc1 (centres undefined)	52%	71%	0.2 mg/kg/day	0.6 mg/kg/day	51%	58%		
Cc1nc(CCOc2ccc(/C=C3\SC(=O)NC3=O)cc2)cs1	34%	5%						
Cc1nc(COc2ccc(CC3SC(=O)NC3=O)cc2)cs1 (centres undefined)	19%	30%						
Cc1oc(-c2ccccc2)nc1CCOc1ccc(/C=C2\SC(=O)NC2=O)cc1			0.4 mg/kg/day	0.2 mg/kg/day	55%	65%		
Cc1oc(-c2ccccc2)nc1CCOc1ccc(CC2SC(=O)NC2=O)cc1 (centres undefined)	59%	66%	0.05 mg/kg/day	0.09 mg/kg/day	55%	67%		
COc1ccc(-c2nc(CCOc3ccc(CC4SC(=O)NC4=O)cc3)c(C)o2)cc1 (centres undefined)	55%	72%	0.3 mg/kg/day	0.6 mg/kg/day	53%	63%		
Cc1oc(-c2ccco2)nc1COc1ccc(CC2SC(=O)NC2=O)cc1 (centres undefined)	43%	35%						
O=C1NC(=O)C(Cc2ccc(OCc3nc4ccccc4o3)cc2)S1 (centres undefined)	35%	24%						
CC(C)c1nc(CCOc2ccc(CC3SC(=O)NC3=O)cc2)cs1 (centres undefined)	56%	45%						
Cc1oc(-c2ccccc2)nc1C(=O)COc1ccc(CC2SC(=O)NC2=O)cc1 (centres undefined)	52%	67%						
Cc1nc(CCOc2ccc(CC3SC(=O)NC3=O)cc2)co1 (centres undefined)	37%	42%		3 mg/kg/day	13%	20%		5 mg/kg/day
CSc1cccc(-c2nc(CCOc3ccc(/C=C4\SC(=O)NC4=O)cc3)c(C)o2)c1	52%	58%						
O=C1NC(=O)/C(=C/c2ccc(OCCc3csc(-c4ccccc4)n3)cc2)S1	57%	57%	0.6 mg/kg/day	1.3 mg/kg/day	49%	44%		

SMILES	Reduction (Mus musculus [1])	Reduction (Mus musculus [2])	ED25 (Mus musculus [3]; Mus musculus, Blood)	ED25 (Mus musculus [4])	Reduction (Mus musculus [5])	Reduction (Mus musculus [6])	Reduction (Mus musculus [7])	ED25 (Mus musculus [3])
COc1ccc(-c2nc(CCOc3ccc(CC4SC(=O)NC4=O)cc3)c(C)o2)cc1OC (centres undefined)			0.5 mg/kg/day	0.6 mg/kg/day	52%	54%		
Cc1oc(-c2ccccc2)nc1C(O)COc1ccc(CC2SC(=O)NC2=O)cc1 (centres undefined)	58%	81%	0.05 mg/kg/day	0.1 mg/kg/day	54%	62%		
Cc1nc(C(O)COc2ccc(CC3SC(=O)NC3=O)cc2)c(C)o1 (centres undefined)	51%	62%	0.2 mg/kg/day	0.5 mg/kg/day	55%	52%		
Cc1oc(C2(C)CCCCC2)nc1CCOc1ccc(/C=C2\SC(=O)NC2=O)cc1	24%	9%						
O=C1NC(=O)C(Cc2ccc(OCCc3csc(-c4ccccc4)n3)cc2)S1 (centres undefined)	52%	63%	0.5 mg/kg/day	0.3 mg/kg/day	39%	54%		
CCc1nc(CCOc2ccc(CC3SC(=O)NC3=O)cc2)cs1 (centres undefined)	55%	37%						
Cc1oc(-c2ccccc2)nc1COc1ccc(/C=C2\SC(=O)NC2=O)cc1	37%	40%						
Cc1oc(C2CCCCC2)nc1C(O)COc1ccc(CC2SC(=O)NC2=O)cc1 (centres undefined)	49%	67%						
Cc1oc(-c2ccc(Cl)cc2)nc1CCOc1ccc(/C=C2\SC(=O)NC2=O)cc1	54%	58%						
Cc1nc(CCOc2ccc(CC3SC(=O)NC3=O)cc2)oc1-c1ccccc1 (centres undefined)	18%	7%						
O=C1NC(=O)C(Cc2ccc(OCCc3coc(C4CCCCC4)n3)cc2)S1 (centres undefined)			1 mg/kg/day	9 mg/kg/day	31%	14%		
O=C1NC(=O)C(Cc2ccc(OCc3csc(-c4cccnc4)n3)cc2)S1 (centres undefined)	25%	30%						
CCc1oc(-c2ccccc2)nc1CCOc1ccc(CC2SC(=O)NC2=O)cc1 (centres undefined)	55%	79%	0.3 mg/kg/day	0.6 mg/kg/day	49%	55%		
Cc1oc(CCOc2ccc(CC3SC(=O)NC3=O)cc2)nc1C1CCCCC1 (centres undefined)	54%	51%						
Cc1oc(-c2ccccc2Cl)nc1CCOc1ccc(CC2SC(=O)NC2=O)cc1 (centres undefined)					52%	57%		
CSc1cccc(-c2nc(CCOc3ccc(CC4SC(=O)NC4=O)cc3)c(C)o2)c1 (centres undefined)	52%	67%						
O=C1NC(=O)C(Cc2ccc(OCc3nc(-c4ccccc4)cs3)cc2)S1 (centres undefined)	48%	44%						
Cc1oc(CCOc2ccc(CC3SC(=O)NC3=O)cc2)nc1CC(C)C (centres undefined)	53%	43%						
Cc1nc(C(O)COc2ccc(/C=C3\SC(=O)NC3=O)cc2)c(C)o1 (centres undefined)	59%	61%	2.2 mg/kg/day	0.8 mg/kg/day	26%	37%		
